Laboratory results taken from patent publication US20090318551A1, “USES OF ANALOGS OF 3-O-ACETYL-11-KETO-BETA-BOSWELLIC ACID” (priority 2004, published 2009).

Experiments:
[1] = target: T1, 5-LO (Homo sapiens, UniProt P09917); conditions: compared with the six boswellic acids; cited from earlier work
T1 sequence (P09917 1-674): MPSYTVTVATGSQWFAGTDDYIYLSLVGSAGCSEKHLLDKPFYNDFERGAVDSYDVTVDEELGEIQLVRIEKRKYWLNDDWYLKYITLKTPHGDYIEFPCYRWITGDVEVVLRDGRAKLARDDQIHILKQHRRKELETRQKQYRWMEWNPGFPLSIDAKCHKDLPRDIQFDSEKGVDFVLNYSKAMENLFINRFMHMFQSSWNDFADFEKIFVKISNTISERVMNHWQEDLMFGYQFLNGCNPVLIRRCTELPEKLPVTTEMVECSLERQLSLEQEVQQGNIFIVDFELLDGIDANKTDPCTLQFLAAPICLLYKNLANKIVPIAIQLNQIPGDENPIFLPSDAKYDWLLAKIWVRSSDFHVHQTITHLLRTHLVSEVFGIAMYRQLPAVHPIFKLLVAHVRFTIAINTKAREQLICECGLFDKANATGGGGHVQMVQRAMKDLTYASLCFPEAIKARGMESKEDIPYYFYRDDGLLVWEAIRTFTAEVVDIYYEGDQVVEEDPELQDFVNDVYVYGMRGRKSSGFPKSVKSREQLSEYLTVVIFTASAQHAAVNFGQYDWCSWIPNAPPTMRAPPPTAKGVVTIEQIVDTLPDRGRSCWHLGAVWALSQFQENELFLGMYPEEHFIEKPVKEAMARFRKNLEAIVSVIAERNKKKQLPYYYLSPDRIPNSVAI

[2] = system: Artemia salina; test: Brine shrimp lethality (BSL) assay; type: in vivo; conditions: nauplii, viability/mortality after 24 hr
Source text: Brine shrimp lethality (BSL) assay is a simple bench top bioassay developed by McLaughlin, et. al. (Studies in Natural Product Chemistry, 9, page 383, 1991 and Am. Chem. Soc. Symp. Series, 534, page 114, 1992) and the results obtained by this assay have been reported to be corroborative with the cytotoxicities determined in 9KB and 9PS cells. The procedure involves hatching Artemia salina cysts in a cone shaped vessel and collecting active nauplii after 48 hr and treating with known concentrations of test substances and vehicle (control) in tubes each tube containing 10 nauplii and checking viability/mortality after 24 hr. Percentage lethality was calculated by comparing mean values of control and test sets of three tubes each. LC50 values were obtained from the graph plotted micro molar concentration against percent lethality.

[3] = system: 5-Lipoxygenase; test: 5-Lox assay (colorimetric, ferric xylenol orange); type: biochemical; conditions: linoleic acid substrate, pH 6.3
Description: The AKBA analogs were screened for their 5-Lipoxygenase inhibitory potential using colorimetric method of Craig A. Gay et al (Anal Biochem., 304, 42 46, 2002). The assay mixture contained 50 mM phosphate buffer pH 6.3, 5-Lipoxygenase, various concentrations of test substances and linoleic acid in a total volume of 0.5 mL after 5 min incubation of above reaction mixture 0.5 ml ferric xylenol orange reagent was added and OD was measured after two minutes at 585 nm using spectrophotometer (varian). Controls were run along with test in a similar manner except using vehicle instead of test substance solution. Percent inhibition was calculated by comparing absorbance of test with that of control

3-O-Acetyl-11-keto-β-boswellic acid [Compound B2, reference compound]
inhibitory activity against 5-LO (in words) [1]: most pronounced inhibitory activity against 5-LO | LD50 in mcM [2]: 5.5 mcM | % inhibition @ 100 μM ([3]; 100 μM test substance): 18.7% | % inhibition @ 250 μM ([3]; 250 μM test substance): 31%
